The nature of the data set: Solubility of co-developers in coating solvents (Example 5). Type of data set: physicochemical. As for the experimental part: Solubility of Co-developers: In order for the co-developer to perform effectively, some quantity of the co-developer must be soluble in the coating solvent for the emulsion layer or topcoat layer. 2-Butanone MEK) and methanol are typical solvents for these layers. Solubility will vary depending on the structure of the co-developer, the composition of the layer containing the co-developer, and the solvents employed.
The photothermographic elements of this invention typically require from 10 mg to 100 mg of co-developer in 40 g of photothermographic emulsion in 25 g 2-butanone in order to achieve high contrast. The photothermographic emulsions are held at 50° F. (10° C.). As this is below room temperature, the solubility is below that of the co-developer at room temperature.
The solubility of co-developer CI-03 in 25 g of 2-butanone (MEK) and in 25 g of methanol was determined.

The results in this text go back to US6387605B1, “Co-developers for black-and-white photothermographic elements” (Eastman Kodak Company, priority 1999, dated 2002).

With `O=C1NC(=O)C(=CO)C(=O)N1` [CI-03, 5-(Hydroxymethylone)-2,4,5(1H3H,5H)-pyrimdine-trione], the “Solubility in MEK” value is “Soluble at room temperature” (2.5 mg in 25 g 2-butanone, room temperature); “Soluble at 90° F. (32° C.)” (5.0 mg in 25 g 2-butanone, 90° F. (32° C.)); “Insoluble at room temperature” (5.0 mg in 25 g 2-butanone, room temperature); “Insoluble at 90° F. (32° C.)” (12.5 mg in 25 g 2-butanone, 90° F. (32° C.)); “Insoluble at 90° F. (32° C.)” (25 mg in 25 g 2-butanone, 90° F. (32° C.)). In addition, the “Solubility in MeOH” value was “Soluble at room temperature” (5 mg in 25 g methanol, room temperature); “Soluble at 90° F. (32° C.)” (12.5 mg in 25 g methanol, 90° F. (32° C.)); “Insoluble at room temperature” (12.5 mg in 25 g methanol, room temperature); “Soluble at 90° F. (32° C.)” (25 mg in 25 g methanol, 90° F. (32° C.)); “Insoluble at room temperature” (25 mg in 25 g methanol, room temperature). For the same molecule, where the note is “Example 1, sample 1-28”, the “Solubility in organic solvents” value is on record as “Compound CI-03 was insoluble in organic solvents”.
